Measurements taken from the NIST ThermoML archive (doi:10.1016/j.jct.2013.02.022).

Experiments:
[1] = Liquid; for mass density: 101 kPa, Vibrating tube method; for vapor or sublimation pressure: Ebulliometric method (Recirculating still)
[2] = refractive index (Na D-line) (dimensionless); conditions: 101.33 kPa, Liquid, Standard Abbe refractometry
[3] = refractive index (Na D-line) (dimensionless); xn = mol fraction of the nth substance listed; conditions: 101 kPa, Liquid, Standard Abbe refractometry
[4] = xn = mol fraction of the nth substance listed; conditions: 101 kPa, Liquid, Vibrating tube method

CCCC(=O)[O-].C[NH2+]CCO [N-methyl-2-hydroxyethylammonium butanoate]
Conditions | mass density, [1] [kg/m3] | refractive index, [2]
288.15 K | 1046 | 1.4579
293.15 K | 1042.6 | –
298.15 K | 1039.2 | –
303.15 K | 1035.9 | 1.4534
308.15 K | 1032.5 | –
313.15 K | – | 1.4504
313.16 K | 1029.1 | –
318.16 K | 1025.7 | –
323.16 K | 1022.3 | –

CCCC(=O)[O-].C[NH2+]CCO [N-methyl-2-hydroxyethylammonium butanoate] + CCCOC(C)=O
Conditions | mass density, [4] [kg/m3] | refractive index, [3]
308.15 K, x2 = 0 | 1032.53 | –
308.15 K, x2 = 0.0785 | 1016.82 | –
308.15 K, x2 = 0.4177 | 981.77 | –
308.15 K, x2 = 0.9454 | 884.44 | –
308.16 K, x2 = 0.1247 | 1013.03 | –
308.16 K, x2 = 0.207 | 1003.47 | –
308.16 K, x2 = 0.3035 | 993.9 | –
308.16 K, x2 = 0.5088 | 968.89 | –
308.16 K, x2 = 0.6042 | 952.99 | –
308.16 K, x2 = 0.696 | 936.16 | –
308.16 K, x2 = 0.7939 | 917.53 | –
308.16 K, x2 = 0.8936 | 896.61 | –
313.15 K, x2 = 0 | – | 1.4504
313.15 K, x2 = 0.0785 | 1013.32 | 1.4483
313.15 K, x2 = 0.1247 | – | 1.4457
313.15 K, x2 = 0.207 | – | 1.4417
313.15 K, x2 = 0.3035 | 989.89 | 1.4365
313.15 K, x2 = 0.4177 | 977.59 | 1.4288
313.15 K, x2 = 0.5088 | – | 1.4222
313.15 K, x2 = 0.6042 | – | 1.4146
313.15 K, x2 = 0.696 | 931.3 | 1.4068
313.15 K, x2 = 0.7939 | – | 1.3991
313.15 K, x2 = 0.8936 | – | 1.387
313.15 K, x2 = 0.9454 | – | 1.3809
313.16 K, x2 = 0 | 1029.14 | –
313.16 K, x2 = 0.1247 | 1009.37 | –
313.16 K, x2 = 0.207 | 999.76 | –
313.16 K, x2 = 0.5088 | 964.73 | –
313.16 K, x2 = 0.6042 | 948.38 | –
313.16 K, x2 = 0.7939 | 912.41 | –
313.16 K, x2 = 0.8936 | 891 | –
313.16 K, x2 = 0.9454 | 878.87 | –
318.15 K, x2 = 0.0785 | 1009.82 | –
318.15 K, x2 = 0.207 | 996.08 | –
318.15 K, x2 = 0.4177 | 973.39 | –
318.15 K, x2 = 0.696 | 926.41 | –
318.15 K, x2 = 0.7939 | 907.24 | –
318.16 K, x2 = 0 | 1025.72 | –
318.16 K, x2 = 0.1247 | 1005.67 | –
318.16 K, x2 = 0.3035 | 985.85 | –
318.16 K, x2 = 0.5088 | 960.4 | –
318.16 K, x2 = 0.6042 | 943.75 | –
318.16 K, x2 = 0.8936 | 885.74 | –
318.16 K, x2 = 0.9454 | 873.25 | –
323.15 K, x2 = 0.1247 | 1001.94 | –
323.15 K, x2 = 0.207 | 992.3 | –
323.15 K, x2 = 0.5088 | 956.04 | –
323.15 K, x2 = 0.6042 | 939.06 | –
323.15 K, x2 = 0.696 | 921.47 | –
323.16 K, x2 = 0 | 1022.26 | –
323.16 K, x2 = 0.0785 | 1006.34 | –
323.16 K, x2 = 0.3035 | 981.79 | –
323.16 K, x2 = 0.4177 | 969.14 | –
323.16 K, x2 = 0.7939 | 901.89 | –
323.16 K, x2 = 0.8936 | 880 | –
323.16 K, x2 = 0.9454 | 867.59 | –

CCOC(C)=O [ethyl acetate]
Conditions | mass density, 298.15 K [kg/m3] | mass density, 303.15 K [kg/m3] | mass density, 308.15 K [kg/m3] | mass density, 313.15 K [kg/m3] | mass density, 318.16 K [kg/m3] | mass density, 323.15 K [kg/m3] | refractive index, 303.15 K | vapor or sublimation pressure, 349.8 K [kPa]
[1] | 894.9 | 888.76 | 882.58 | 876.34 | 870.06 | 863.73 | – | 101.3
[2] | – | – | – | – | – | – | 1.3672 | –

CCOC(C)=O [ethyl acetate] + CCCC(=O)[O-].C[NH2+]CCO
x1 = 1
Conditions | mass density, 303.15 K [kg/m3] | mass density, 308.15 K [kg/m3] | mass density, 313.15 K [kg/m3] | mass density, 318.16 K [kg/m3] | mass density, 323.15 K [kg/m3] | refractive index, 303.15 K
[3] | – | – | – | – | – | 1.3672
[4] | 888.76 | 882.58 | 876.34 | 870.06 | 863.73 | –

COC(C)=O [methyl ethanoate]
Conditions | mass density, 288.15 K [kg/m3] | mass density, 293.14 K [kg/m3] | mass density, 298.14 K [kg/m3] | mass density, 303.14 K [kg/m3] | mass density, 308.14 K [kg/m3] | mass density, 313.14 K [kg/m3] | mass density, 318.14 K [kg/m3] | mass density, 323.15 K [kg/m3] | refractive index, 288.15 K | vapor or sublimation pressure, 330.1 K [kPa]
[1] | 939.9 | 933.4 | 926.8 | 920.2 | 913.5 | 906.7 | 899.9 | 893 | – | 101.3
[2] | – | – | – | – | – | – | – | – | 1.365 | –

COC(C)=O [methyl ethanoate] + CCCC(=O)[O-].C[NH2+]CCO
x1 = 1
Conditions | mass density, 288.15 K [kg/m3] | mass density, 293.14 K [kg/m3] | mass density, 298.14 K [kg/m3] | mass density, 303.14 K [kg/m3] | mass density, 308.14 K [kg/m3] | mass density, 313.14 K [kg/m3] | mass density, 318.14 K [kg/m3] | mass density, 323.15 K [kg/m3] | refractive index, 288.15 K
[3] | – | – | – | – | – | – | – | – | 1.365
[4] | 939.9 | 933.4 | 926.8 | 920.2 | 913.5 | 906.7 | 899.9 | 893 | –

CCCOC(C)=O [propyl ethanoate]
Conditions | mass density, 298.15 K [kg/m3] | mass density, 308.14 K [kg/m3] | mass density, 313.15 K [kg/m3] | mass density, 318.15 K [kg/m3] | mass density, 323.15 K [kg/m3] | refractive index, 313.15 K | vapor or sublimation pressure, 374 K [kPa]
[1] | 882.61 | 871.38 | 865.7 | 860 | 854.26 | – | 101.3
[2] | – | – | – | – | – | 1.3741 | –

CCCOC(C)=O [propyl ethanoate] + CCCC(=O)[O-].C[NH2+]CCO
x1 = 1
Conditions | mass density, 308.14 K [kg/m3] | mass density, 313.15 K [kg/m3] | mass density, 318.15 K [kg/m3] | mass density, 323.15 K [kg/m3] | refractive index, 313.15 K
[3] | – | – | – | – | 1.3741
[4] | 871.38 | 865.7 | 860 | 854.26 | –
